Results reported in PubChem BioAssay (NCI).
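Step 1: Grow cells in 96-well plates. Step 2: Expose to compound for 48 hours at 5 concentrations. Step 3: Interpolate endpoints linearly; if unreached, use highest concentration. GI50: concentration for 50% inhibition of growth. TGI marks complete inhibition of growth.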

Legend:
Assay in all cases: NCI-60 cell line screen, 48 h
[1] = system: SF-295 CNS
[2] = system: HOP-62 NSCLC
[3] = system: OVCAR-4 ovarian
[4] = system: M14 melanoma
[5] = system: MOLT-4 leukemia
[6] = system: MDA-MB-231 breast
[7] = system: UO-31 renal
[8] = system: PC-3 prostate
[9] = system: A498 renal
[10] = system: HCT-15 colon

Row | Compound | TGI [1] [µM] | TGI [2] [µM] | TGI [3] [µM] | TGI [4] [µM] | TGI [5] [µM] | TGI [6] [µM] | TGI [7] [µM] | TGI [8] [µM] | TGI [9] [µM] | TGI [10] [µM] | GI50 [1] [µM] | GI50 [2] [µM] | GI50 [3] [µM] | GI50 [4] [µM] | GI50 [5] [µM] | GI50 [6] [µM] | GI50 [7] [µM] | GI50 [8] [µM] | GI50 [9] [µM] | GI50 [10] [µM]
1 | O=c1c2ccccc2[nH]n1Cc1ccccc1 | > 100 | > 100 | > 100 | > 100 | > 100 | > 100 | > 100 | > 100 | > 100 | > 100 |  |  |  |  |  |  |  |  |  | 
2 | CCc1c2c(cc3c1CC1(C3)Cc3cc4c(c(C(=O)OC)c3C1)CCCC4)CCCC2 (stereo not given) | > 100 | > 100 | > 100 | > 100 | > 100 | > 100 | > 100 | > 100 | > 100 | > 100 |  |  |  |  |  |  |  |  |  | 
3 | N#CC1(C#N)NC(c2ccccc2)C(C#N)(C#N)NC1c1ccccc1 (stereo not given) | > 100 | > 100 | > 100 | > 100 | > 100 | > 100 | > 100 | > 100 | > 100 | > 100 |  |  |  |  |  |  |  |  |  | 
4 | CSC1NC(c2ccccc2)=C(C#N)C(=O)N1C1OCC(OC(C)=O)C(OC(C)=O)C1OC(C)=O (stereo not given) | > 100 | > 100 | > 100 | > 100 | > 100 | > 100 | > 100 | > 100 | > 100 | > 100 |  |  |  |  |  |  |  |  |  | 
5 | COc1ccc2c3c(Nc4cccc(/C(C)=N\O)c4)[nH]c4ccccc4c-3c(N=O)c2c1 | > 100 | > 100 | > 100 | > 100 | 62.2 | 44.5 | > 100 | 65.4 | > 100 | 39.6 | > 100 | 37.9 | 29 | 29.9 | 7 | 18.9 | 52.9 | 20.5 | 78.1 | 18
6 | CC(Oc1ccccc1Cl)C(=O)NN1C(=O)CC(=O)N(c2ccccc2)C1=S (stereo not given) | > 100 | > 100 | > 100 | > 100 | > 100 | > 100 | > 100 | > 100 | > 100 | > 100 |  |  |  |  |  |  |  |  |  | 
7 | COc1ccc([N+](=O)[O-])c2c(NCCCN(C)C)ccnc12 | 24.8 | 15.6 | 3.69 | 20.8 | 8.12 | > 73.8 | 17.3 | 30.8 | 5.18 | 4.95 |  |  |  |  |  |  |  |  |  | 
8 | Cc1ccc(C2(c3ccc(Cl)cc3)c3ccccc3C3=NCCN32)cc1 (stereo not given) | 20.6 | 23.8 | 16.9 | 16.2 | 20.9 | 19.4 | 18.1 | 21.6 | 20 | 24 |  |  |  |  |  |  |  |  |  | 
9 | c1cc(-c2ccc(-c3ccc(-c4ccc(-c5ccncc5)o4)cc3)o2)ccn1 | 30.9 | 55.3 | 65.4 | 32.2 | 25.7 | 63.8 | 38 | 36.4 | > 100 | 28.3 |  |  |  |  |  |  |  |  |  | 
10 | CC1CN=C(NS(=O)(=O)c2cc(C(=O)Nc3ccc(Cl)cc3)c(Cl)cc2S)NN1 (stereo not given) | > 100 | > 100 | > 100 | 69.5 | > 100 | > 100 | > 100 | 94 | 37.1 | > 100 |  |  |  |  |  |  |  |  |  | 
11 | CCCCCCCCCCCCOP(=O)(O)OP(=O)(O)OCC1OC(n2ccc(N)nc2=O)CC1O (stereo not given) | > 100 | > 100 | > 100 | > 100 | > 100 | > 100 | > 100 | > 100 | > 100 | > 100 |  |  |  |  |  |  |  |  |  | 
12 | CCCCCCCCCCCC(=O)OC[C@H](C[As](=O)(O)O)OC(=O)CCCCCCCCCCC | 27 | 31.7 | 37.7 | 10.5 | > 81.4 | 16.3 | 29.5 | 10.5 | 17.1 | 23.9 |  |  |  |  |  |  |  |  |  | 
13 | COc1cc2c(c(OC)c1OC)C(=O)[C@@H]1[C@H]2N1C(=O)NCCCl | > 100 | > 100 | > 100 | > 100 | > 100 | > 100 | > 100 | > 100 | > 100 | > 100 |  |  |  |  |  |  |  |  |  | 
14 | COc1cc(-c2nc3ccc(N4CCN(C)CC4)cc3[nH]2)c(OC)c2[nH]c(COC(C)=O)nc12 | > 100 | > 100 | > 100 | 35 | > 100 | > 100 | > 100 | > 100 | > 100 | > 100 |  |  |  |  |  |  |  |  |  | 
15 | COc1ccccc1Cc1ccc(C2C=CC3(CC(=O)C=C3C)C(=O)C2)o1 (stereo not given) | 65.9 | 50.3 | > 100 | > 100 | 34.1 | 50.1 | > 100 | 38.3 | 47.7 | 81.4 |  |  |  |  |  |  |  |  |  | 
16 | Nc1ccc2[nH]c(-c3cccc(C(F)(F)F)c3)cc(=O)c2c1 |  | > 100 | > 100 | > 100 | > 100 | > 100 | > 100 | 97.7 | 82.9 | > 100 |  |  | 62.9 |  |  |  |  |  |  | 

Row | Compound | TGI [1] [µM] | TGI [2] [µM] | TGI [3] [µM] | TGI [4] [µM] | TGI [5] [µM] | TGI [6] [µM] | TGI [7] [µM] | TGI [8] [µM] | TGI [9] [µM] | TGI [10] [µM] | GI50 [1] [µM] | GI50 [2] [µM] | GI50 [3] [µM] | GI50 [4] [µM] | GI50 [5] [µM] | GI50 [6] [µM] | GI50 [7] [µM] | GI50 [8] [µM] | GI50 [9] [µM] | GI50 [10] [µM]
17 | Cc1ccc(C(=O)Nc2ccc(CP(=O)(O)O)cc2)cc1NC(=O)c1cccc(N)c1 | > 100 | > 100 | > 100 | > 100 | > 100 | > 100 | > 100 | > 100 | > 100 | > 100 |  |  |  |  |  |  |  |  |  | 
18 | COC(=O)/C=C\C(C#N)(C#N)N=Cc1cccc(OC)c1 | 53.8 | > 62.1 | 18.8 | 10.4 | 17.7 | 29 | 8.46 | 29.5 | 34.7 | 4.54 |  |  |  |  |  |  |  |  |  | 
19 | Cc1nc(SCC(=O)Nc2ccc(Cl)cc2)c2sc(=S)n(-c3ccccc3)c2n1 | > 10 | > 10 | > 10 | > 10 | > 10 | > 10 |  | > 10 | > 10 | > 10 |  |  |  |  |  |  |  |  |  | 
20 | CSC1(C)C(=O)Nc2c(OCc3ccccc3)cc([N+](=O)[O-])cc21 (stereo not given) | > 100 | > 100 | > 100 | > 100 | > 100 | > 100 |  | > 100 | > 100 | > 100 |  |  |  |  |  |  |  |  |  | 
21 | S=C(N/N=C(\c1ccccc1)c1ccccn1)NC1CCCCC1 | > 80.1 | > 100 | > 100 | > 100 | > 100 | > 100 | > 100 | > 100 | > 100 | > 100 |  |  |  |  |  |  |  |  |  | 
22 | CCCCn1c(CSc2ccc(Cl)cc2)c(C(=O)OCC)c2cc(OC)c(Br)cc21 | > 100 | > 100 | > 100 | > 100 | > 100 | > 100 | > 100 | > 100 | > 100 | > 100 |  |  |  |  |  |  |  |  |  | 
23 | CC1(c2sccc2Cl)CC(c2sccc2Cl)=C(C#N)C(=C(C#N)C#N)N1 (stereo not given) | 35.2 | 37.3 | 66.1 | 42.7 | > 100 | 42.9 |  | 32.8 | 33.3 | 35 |  |  |  |  |  |  |  |  |  | 
24 | CCCNC(=S)N/N=C(\C)c1ccc(S(=O)(=O)N(C)c2ccccc2)cc1 | 58 | 29 | > 100 | > 87.4 | > 100 | > 100 | > 100 | > 100 | > 100 | > 100 |  |  |  |  |  |  |  |  |  | 
25 | COC(=O)C1CCC(=S)N1C(=O)OCc1ccccc1 (stereo not given) | > 100 | > 100 | > 100 | > 100 | > 100 | > 100 | > 100 | > 100 | > 100 | > 100 |  |  |  |  |  |  |  |  |  | 
26 | CC(CC(N)C(=O)O)C(=O)O (stereo not given) | > 100 | > 100 | > 100 | > 100 | > 100 | > 100 | > 100 | > 100 | > 100 | > 100 |  |  |  |  |  |  |  |  |  | 
27 | COC(=O)c1c(C(=O)OC)c2ccccn2c1-c1cc(OC)c(Br)c(=O)o1 | > 100 | > 100 | > 100 | > 100 | > 100 | > 100 | > 100 | > 100 | > 100 | > 100 |  |  |  |  |  |  |  |  |  | 
28 | COC(=O)C1CCN(C(=O)OC(C)(C)C)CC1 | > 100 | > 100 | > 100 | > 100 | > 100 | > 100 | > 100 | > 100 | > 100 | > 100 |  |  |  |  |  |  |  |  |  | 
29 | CSc1nc(C)cc(Nc2ccc(O)c(CN3CCOCC3)c2)n1 | > 100 | > 100 | > 100 | > 100 | > 100 | > 100 | > 100 | > 100 | > 100 | > 100 |  |  |  |  |  |  |  |  |  | 
30 | CCOC(=O)NN(C(=O)OCC)C(C(=O)C1=CCCCC1)N(NC(=O)OCC)C(=O)OCC | > 100 | > 100 | > 100 | > 100 | > 100 | > 100 | > 100 | > 100 | > 100 | > 100 |  |  |  |  |  |  |  |  |  | 
31 | CN(C)c1ccc(/C=C/c2ccc(S(N)(=O)=O)cc2)cc1 | 46.8 | 36.6 | 10.1 | 35.9 | > 100 | 34.3 | 34.5 | 34.8 | 40.3 | 74.1 |  |  | 3.35 |  | > 100 |  |  |  |  | 17.1
32 | COc1cccc(C23CCCC(C2)NCC3Br)c1OC (stereo not given) | > 100 | > 100 | > 100 | > 100 | > 100 | > 100 | > 100 | > 100 | 31.3 | > 100 |  |  |  |  |  |  |  |  |  | 
